From US11395847B2, “Acylated GLP-1/GLP-2 dual agonists” (Zealand Pharma A/S, priority 2016, dated 2022) come the findings set out here.

pEC50: −log10 of the molar value. Where a SMILES comes first, the peptide text is derived from it.

For one experiment, the target named is T1, human GLP-2 receptor (Homo sapiens, UniProt O95838, D470N).
T1 construct: expressed in transfected cells
T1 sequence (O95838 1-553 D470N): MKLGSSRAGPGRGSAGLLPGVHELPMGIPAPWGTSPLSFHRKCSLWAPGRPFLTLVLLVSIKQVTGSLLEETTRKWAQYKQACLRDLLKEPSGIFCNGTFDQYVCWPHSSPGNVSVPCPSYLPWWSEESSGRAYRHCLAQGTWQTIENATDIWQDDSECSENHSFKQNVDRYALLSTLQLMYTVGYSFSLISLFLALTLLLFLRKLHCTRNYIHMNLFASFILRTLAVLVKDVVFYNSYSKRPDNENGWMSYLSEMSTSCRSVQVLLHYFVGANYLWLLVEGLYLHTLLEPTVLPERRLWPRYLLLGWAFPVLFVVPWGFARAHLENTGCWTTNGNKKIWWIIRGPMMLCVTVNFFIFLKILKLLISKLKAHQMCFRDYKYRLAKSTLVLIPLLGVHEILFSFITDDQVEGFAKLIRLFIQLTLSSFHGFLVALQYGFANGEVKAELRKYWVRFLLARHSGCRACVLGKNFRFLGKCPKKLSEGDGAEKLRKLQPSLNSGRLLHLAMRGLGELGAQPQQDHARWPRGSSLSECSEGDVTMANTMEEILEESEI
Put plainly: GLP-2 receptor potency assay (cAMP ALPHASCREEN, HEK293 cells stably expressing GLP-2 R). In kind it is cell-based. To be noted: cAMP response, HEK293 cells expressing human GLP-2 R; read-out: EC50 GLP-2. The method in brief: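 HEK293 clones stably transfected with the human GLP-2 receptor, selected with G418, were used. Intracellular cAMP was quantified by AlphaScreen. Responses were normalised to positive and vehicle controls, and EC50 and maximal response were taken from concentration-response curves.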
A general note: Bead proximity is the source of the signal in Alpha formats.

Experiment [1] has as its system Normal chow-fed C57BL/6J male mice. In words: Effect on fasting glucose and intestinal weight in normal mice. It counts as in vivo. As to conditions: for Small intestinal wet weight: 100 nmol/kg s.c. once daily for 4 days, sacrificed 24 hours after final dosing; for Fasting blood glucose: 100 nmol/kg s.c., day 0 after a single injection, fasted mice. The protocol: Normal chow-fed C57BL/6J male mice were used. The mice were kept in standard housing conditions, light-, temperature-, and humidity-controlled room (12:12 h light-dark cycle, with lights on at 06.00-18.00 h; 20-22° C.; 50-80% relative humidity). Each dosing group consisted of 6 animals. Mice were dosed once daily with 100 nmol/kg with the test compounds or vehicle for 4 days via subcutaneous administration.
On day 0 mice were fasted and blood glucose levels measured after a single s.c. injection with peptides. Animals were sacrificed 24 hours after final dosing on day 3, and small intestinal wet weights were measured.

A further experiment has as its target T2, human GLP-1 receptor (Homo sapiens, UniProt P43220).
T2 construct: expressed in transfected cells
Put plainly: GLP-1 receptor potency assay (cAMP ALPHASCREEN, HEK293 cells stably expressing GLP-1 R). In kind it is cell-based. To be noted: cAMP response, HEK293 cells expressing human GLP-1 R. The procedure, abridged:
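Clonal HEK293 line stably transfected with human GLP-1R (G418-selected) was treated with test compounds and the cAMP response quantified by ALPHASCREEN. Signals were normalized to positive control and vehicle, with EC50 and maximal response taken from concentration-response curves.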

T2 sequence (P43220 24-463): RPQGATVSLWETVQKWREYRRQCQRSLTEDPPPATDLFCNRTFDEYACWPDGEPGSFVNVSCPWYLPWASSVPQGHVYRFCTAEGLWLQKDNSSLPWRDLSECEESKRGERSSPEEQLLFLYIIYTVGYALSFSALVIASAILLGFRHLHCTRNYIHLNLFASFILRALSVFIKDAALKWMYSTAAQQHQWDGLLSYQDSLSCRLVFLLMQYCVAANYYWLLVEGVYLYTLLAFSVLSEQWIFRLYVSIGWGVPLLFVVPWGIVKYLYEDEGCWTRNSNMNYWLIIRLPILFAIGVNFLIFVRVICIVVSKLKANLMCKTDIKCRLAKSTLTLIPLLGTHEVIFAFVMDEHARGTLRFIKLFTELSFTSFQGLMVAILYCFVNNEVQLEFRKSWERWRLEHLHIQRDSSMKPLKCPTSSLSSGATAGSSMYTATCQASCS

`CC[C@H](C)[C@H](NC(=O)[C@H](Cc1ccccc1)NC(=O)[C@H](CC(=O)O)NC(=O)[C@H](CCCNC(=N)N)NC(=O)[C@H](C)NC(=O)[C@H](C)NC(=O)[C@H](CCCCNC(=O)CC[C@H](NC(=O)CCCCCCCCCCCCCCCCC(=O)O)C(=O)O)NC(=O)CNC(=O)[C@H](CC(=O)O)NC(=O)[C@H](CC(C)C)NC(=O)[C@@H](NC(=O)[C@@H](NC(=O)[C@H](C)NC(=O)[C@H](CC(C)C)NC(=O)[C@H](CCC(=O)O)NC(=O)[C@H](CO)NC(=O)[C@@H](NC(=O)[C@H](Cc1ccccc1)NC(=O)[C@@H](NC(=O)CNC(=O)[C@H](CCC(=O)O)NC(=O)C(C)(C)NC(=O)[C@@H](N)Cc1c[nH]cn1)[C@@H](C)O)[C@@H](C)O)[C@@H](C)O)[C@@H](C)CC)C(=O)N[C@@H](C)C(=O)N[C@@H](Cc1c[nH]c2ccccc12)C(=O)N[C@@H](CC(C)C)C(=O)N[C@H](C(=O)N[C@@H](CCC(=O)O)C(=O)N[C@@H](Cc1c[nH]cn1)C(=O)N[C@@H](CCCCN)C(=O)N[C@H](C(=O)N[C@H](C(=O)N[C@@H](CC(=O)O)C(=O)O)[C@@H](C)O)[C@@H](C)CC)[C@@H](C)CC` [Compound 9] (HELM PEPTIDE1{H.[Aib].E.G.T.F.T.S.E.L.A.T.I.L.D.G.K.A.A.R.D.F.I.A.W.L.I.E.H.K.I.T.D}|PEPTIDE2{[O=C(O)CCCCCCCCCCCCCCCCC(=O)[*:2]].[gGlu]}$PEPTIDE1,PEPTIDE2,17:R3-2:R2$$$V2.0): at human GLP-2 receptor, the pEC50 – broadly, the negative decadic logarithm of the EC50, by convention in mol/L – is 10.25. In addition, in experiment [1], the “Small intestinal wet weight” value was 1.11 g and the Fasting blood glucose came out at 4.98 mM.
As to `CC[C@H](C)[C@H](NC(=O)[C@H](Cc1ccccc1)NC(=O)[C@H](CC(=O)O)NC(=O)[C@H](CCCNC(=N)N)NC(=O)[C@H](C)NC(=O)[C@H](C)NC(=O)[C@H](CCC(N)=O)NC(=O)[C@H](CCCCNC(=O)COCCOCCNC(=O)[C@H](CCCCN)NC(=O)[C@H](CCC(=O)O)NC(=O)[C@H](CCCCN)NC(=O)CC[C@H](NC(=O)CCCCCCCCCCCCCCCCCCC(=O)O)C(=O)O)NC(=O)[C@H](CC(=O)O)NC(=O)[C@H](CC(C)C)NC(=O)[C@@H](NC(=O)[C@@H](NC(=O)[C@H](C)NC(=O)[C@H](CC(C)C)NC(=O)[C@H](CCC(=O)O)NC(=O)[C@H](CO)NC(=O)[C@H](CO)NC(=O)[C@H](Cc1ccccc1)NC(=O)[C@@H](NC(=O)CNC(=O)[C@H](CCC(=O)O)NC(=O)C(C)(C)NC(=O)[C@@H](N)Cc1c[nH]cn1)[C@@H](C)O)[C@@H](C)O)[C@@H](C)CC)C(=O)N[C@@H](C)C(=O)N[C@@H](Cc1c[nH]c2ccccc12)C(=O)N[C@@H](CC(C)C)C(=O)N[C@H](C(=O)N[C@@H](CCC(=O)O)C(=O)N[C@@H](Cc1c[nH]cn1)C(=O)N[C@@H](CCCCN)C(=O)N[C@H](C(=O)N[C@H](C(=O)N[C@@H](CC(=O)O)C(=O)O)[C@@H](C)O)[C@@H](C)CC)[C@@H](C)CC` [Compound 50] (HELM PEPTIDE1{H.[Aib].E.G.T.F.S.S.E.L.A.T.I.L.D.K.Q.A.A.R.D.F.I.A.W.L.I.E.H.K.I.T.D}|PEPTIDE2{[O=C(O)CCCCCCCCCCCCCCCCCCC(=O)[*:2]].[gGlu].K.E.K.[O=C(COCCOCCN[*:1])[*:2]]}$PEPTIDE1,PEPTIDE2,16:R3-6:R2$$$V2.0), on human GLP-1 receptor, the pEC50 was 9.51. In addition, the pEC50 on human GLP-2 receptor is 10.25. In addition, in experiment [1], the “Small intestinal wet weight” value worked out at 1.43 g and the Fasting blood glucose is listed as 5.57 mM.
